One experiment concerns the target T1, NEP enzyme (Homo sapiens, UniProt P08473).
T1 construct: purchased R&D Systems, Minneapolis, Minn; 1182-ZN
The experiment can be described thus: NEP enzyme inhibition assay (fluorogenic peptide substrate). Type of experiment: biochemical. As to conditions: values given as lower bounds; * = prodrugs, may not exhibit NEP activity in an in vitro assay; read-out: NEP pIC50 (converted). The method in brief: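 Recombinant human NEP was run with Mca-BK2 (10 μM) at room temperature in Tris buffer with 1 μM Zn. Compounds (10 μM–20 pM, 12 points) were pre-equilibrated 10 min, then reacted 20 min and acid-stopped. Fluorescence ex 320/em 405 nm, one-site competition fit gives pIC50. Thiol compounds may be pre-treated with 400 μM TCEP.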

For the next experiment, the target named is T2, human AT1 receptor (Homo sapiens, UniProt P30556).
T2 construct: expressed in transfected cells; host or cells: CHO-K1
T2 sequence (P30556 1-359): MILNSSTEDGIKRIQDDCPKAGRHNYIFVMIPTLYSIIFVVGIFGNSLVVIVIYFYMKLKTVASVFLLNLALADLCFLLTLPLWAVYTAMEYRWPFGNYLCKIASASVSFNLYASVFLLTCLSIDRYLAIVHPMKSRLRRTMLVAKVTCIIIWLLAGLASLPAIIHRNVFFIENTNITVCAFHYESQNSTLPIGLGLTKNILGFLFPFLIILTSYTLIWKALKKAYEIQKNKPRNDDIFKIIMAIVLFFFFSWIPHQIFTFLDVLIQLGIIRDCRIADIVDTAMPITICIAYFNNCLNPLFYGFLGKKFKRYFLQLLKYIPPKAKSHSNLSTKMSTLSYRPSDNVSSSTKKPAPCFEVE
The experiment can be described thus: AT1 radioligand binding assay (displacement of [Eu]AngII). As to conditions: membranes of CHO-K1 cells expressing cloned human AT1 receptor; values given as lower bounds; read-out: AT1 pKi (converted). The essentials:
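Membranes from CHO-K1 cells stably expressing cloned human AT1, 0.2 μg protein, in 50 mM Tris/HCl pH 7.5, 5 mM MgCl2, 0.025% BSA. Compounds displaced [Eu]AngII over 120 min in the dark at room temperature or 37° C; filter-bound TRF read. Nonspecific binding with 10 μM angiotensin II; IC50 converted to Ki via Cheng-Prusoff, reported as pKi.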

T1 sequence (P08473 52-750 limits assumed): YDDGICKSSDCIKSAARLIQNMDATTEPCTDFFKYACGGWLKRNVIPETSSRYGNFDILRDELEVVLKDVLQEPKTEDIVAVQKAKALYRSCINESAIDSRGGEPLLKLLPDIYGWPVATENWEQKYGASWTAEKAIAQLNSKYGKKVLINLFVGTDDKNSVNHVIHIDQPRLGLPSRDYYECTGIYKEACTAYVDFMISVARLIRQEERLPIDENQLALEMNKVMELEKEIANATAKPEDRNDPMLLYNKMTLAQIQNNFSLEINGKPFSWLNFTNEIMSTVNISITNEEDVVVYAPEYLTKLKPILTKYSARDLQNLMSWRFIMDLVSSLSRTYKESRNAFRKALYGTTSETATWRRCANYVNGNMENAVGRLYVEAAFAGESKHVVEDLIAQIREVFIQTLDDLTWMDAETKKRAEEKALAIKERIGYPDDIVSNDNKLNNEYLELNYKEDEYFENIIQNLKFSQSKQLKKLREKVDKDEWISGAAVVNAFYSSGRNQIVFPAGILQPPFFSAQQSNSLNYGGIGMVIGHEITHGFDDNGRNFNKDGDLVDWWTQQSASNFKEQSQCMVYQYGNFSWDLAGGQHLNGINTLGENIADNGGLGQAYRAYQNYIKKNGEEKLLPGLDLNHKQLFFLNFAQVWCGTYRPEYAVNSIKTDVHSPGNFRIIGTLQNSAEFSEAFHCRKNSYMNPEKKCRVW

Consider `CCCc1cc(C(=O)N[C@H](Cc2ccccc2)[C@@H](O)C(=O)O)nn1Cc1ccc(-c2ccccc2S(=O)(=O)NC(=O)N(C)C)cc1` [Example 7-20, (2R,3R)-3-(1-((2′-(N-(dimethylcarbamoyl)sulfamoyl)biphenyl-4-yl)methyl)-5-propyl-1H-pyrazole-3-carboxamido)-2-hydroxy-4-phenylbutanoic acid], for which, at NEP enzyme, the IC50 was not above 100 nM. Also, the Ki at human AT1 receptor was not above 10 nM.

For `CCCc1cc(C(=O)N[C@@H](CC(=O)O)Cc2ccccc2)nn1Cc1ccc(-c2ccccc2-c2nnn[nH]2)cc1` [Example 2, (R)-4-Phenyl-3-({5-propyl-1-[2′-(1H-tetrazol-5-yl)-biphenyl-4-ylmethyl]-1H-pyrazole-3-carbonyl}amino)butyric Acid], the IC50 at NEP enzyme is not above 10000 nM. Besides, the Ki at human AT1 receptor is not above 10 nM.

As to `CCCc1cc(C(=O)N[C@@H](CC(=O)O)CC(C)C)nn1Cc1ccc(-c2ccccc2-c2nnn[nH]2)nc1` [Example 14-7, (R)-5-Methyl-3-[(5-propyl-1-{6-[2-(1H-tetrazol-5-yl)-phenyl]-pyridin-3-ylmethyl}-1H-pyrazole-3-carbonyl)-amino]hexanoic acid], at NEP enzyme, the IC50 was not above 100 nM. Besides, on human AT1 receptor, the Ki is not above 10 nM.

As for `CCCc1cc(C(=O)N[C@H](Cc2ccccc2)[C@@H](O)C(=O)O)nn1Cc1ccc(-c2ccccc2-c2nnn[nH]2)cc1` [Example 1, (2R,3R)-3-(1-((2′-(1H-tetrazol-5-yl)biphenyl-4-yl)methyl)-5-propyl-1H-pyrazole-3-carboxamido)-2-hydroxy-4-phenylbutanoic Acid], the IC50 at NEP enzyme is not above 1000 nM. For the same compound, the Ki on human AT1 receptor is not above 10 nM.

Regarding `CCCc1cc(C(=O)N[C@H](Cc2ccccc2)[C@@H](O)C(=O)O)nn1Cc1ccc(-c2ccccc2S(=O)(=O)NC(=O)c2ccccn2)cc1` [Example 7-9, (2R,3R)-2-Hydroxy-4-phenyl-3-[(5-propyl-1-{2′-[(pyridine-2-carbonyl)sulfamoyl]biphenyl-4-ylmethyl}-1H-pyrazole-3-carbonyl)amino]butyric acid], at NEP enzyme, the IC50 was not above 1000 nM. Further, the Ki on human AT1 receptor was not above 10 nM.

As for `CCCc1cc(C(=O)N[C@@H](CC(=O)NO)Cc2ccccc2)nn1Cc1ccc(-c2ccccc2S(=O)(=O)NC(C)=O)c(F)c1` [Example 6-17, 1-(2′-Acetylsulfamoyl-2-fluorobiphenyl-4-ylmethyl)-5-propyl-1H-pyrazole-3-carboxylic acid ((R)-1-hydroxycarbamoylmethyl-2-phenylethyl)amide], the IC50 on NEP enzyme is not above 100 nM. On human AT1 receptor, the Ki was not above 10 nM.

In the case of `CCCc1cc(C(=O)N[C@@H](CC(=O)OC)Cc2ccccc2)nn1Cc1ccc(-c2ccccc2-c2nnn[nH]2)cc1` [Example 3-27, (R)-4-Phenyl-3-({5-propyl-1-[2′-(1H-tetrazol-5-yl)-biphenyl-4-ylmethyl]-1H-pyrazole-3-carbonyl}amino)butyric acid methyl ester], at NEP enzyme, the IC50 was not above 10000 nM. Also, the Ki on human AT1 receptor is not above 10 nM.

For the compound `CCOc1cc(C(=O)N[C@H](Cc2ccccc2)[C@@H](O)C(=O)O)nn1Cc1ccc(-c2ccccc2S(=O)(=O)NC(C)=O)cc1` [Example 6-3, (2R,3R)-3-{[1-(2′-Acetylsulfamoylbiphenyl-4-ylmethyl)-5-ethoxy-1H-pyrazole-3-carbonyl]amino}-2-hydroxy-4-phenyl-butyric acid], the IC50 at NEP enzyme is not above 1000 nM. The Ki on human AT1 receptor was not above 100 nM.

In the case of `CCOc1cc(C(=O)N[C@@H](CC(=O)O)Cc2ccccc2)nn1Cc1ccc(-c2ccccc2S(=O)(=O)NC(C)=O)cc1F` [Example 6-24, (R)-3-{[1-(2′-Acetylsulfamoyl-3-fluorobiphenyl-4-ylmethyl)-5-ethoxy-1H-pyrazole-3-carbonyl]amino}-4-phenylbutyric acid], the IC50 on NEP enzyme is not above 10000 nM. Further, the Ki at human AT1 receptor is not above 10 nM.

Consider `CCCc1cc(C(=O)N[C@@H](CC(=O)O)Cc2ccccc2Cl)nn1Cc1ccc(-c2ccccc2-n2nn[nH]c2=O)cc1` [Example 16-5, (R)-4-(2-Chlorophenyl)-3-({1-[2′-(5-oxo-4,5-dihydrotetrazol-1-yl)-biphenyl-4-ylmethyl]-5-propyl-1H-pyrazole-3-carbonyl}amino)butyric acid], for which, on NEP enzyme, the IC50 was not above 1000 nM. Besides, the Ki at human AT1 receptor is not above 10 nM.

For the compound `CCCc1cc(C(=O)N[C@H](Cc2ccccc2)[C@@H](O)C(=O)O)nn1Cc1ccc(-c2ccccc2S(=O)(=O)NC(=O)N2CCOCC2)cc1` [Example 7-22, (2R,3R)-2-Hydroxy-3-[(1-{2′-[(morpholine-4-carbonyl)sulfamoyl]biphenyl-4-ylmethyl}-5-propyl-1H-pyrazole-3-carbonyl)amino]-4-phenylbutyric acid], the IC50 on NEP enzyme is not above 100 nM. Further, on human AT1 receptor, the Ki was not above 100 nM.

For `CCOc1cc(C(=O)N[C@@H](CS)Cc2ccccc2)nn1Cc1ccc(-c2ccccc2S(=O)(=O)NC(C)=O)cc1F` [Example 6-1, 1-(2′-Acetylsulfamoyl-3-fluorobiphenyl-4-ylmethyl)-5-ethoxy-1H-pyrazole-3-carboxylic acid ((R)-1-benzyl-2-mercaptoethyl)amide], at NEP enzyme, the IC50 is not above 100 nM. The Ki on human AT1 receptor is not above 10 nM.

`CCCc1cc(C(=O)N[C@@H](CC(C)C)CN(O)C=O)nn1Cc1ccc(-c2ccccc2S(=O)(=O)NC(C)=O)cc1` [Example 6-23, 1-(2′-Acetylsulfamoyl-biphenyl-4-ylmethyl)-5-propyl-1H-pyrazole-3-carboxylic acid {(S)-1-[(formylhydroxyamino)methyl]-3-methylbutyl}amide]: the IC50 on NEP enzyme is not above 100 nM. Besides, on human AT1 receptor, the Ki was not above 10 nM.

On to `CCCc1cc(C(=O)N[C@H](Cc2ccccc2)[C@@H](O)C(=O)O)nn1Cc1ccc(-c2ccccc2S(=O)(=O)NC(=O)CO)cc1` [Example 7-15, (2R,3R)-2-Hydroxy-3-({1-[2′-(2-hydroxyacetylsulfamoyl)biphenyl-4-ylmethyl]-5-propyl-1H-pyrazole-3-carbonyl}amino)-4-phenylbutyric acid], for which the IC50 on NEP enzyme is not above 100 nM. On human AT1 receptor, the Ki was not above 10 nM.

For `CCCCc1cc(C(=O)N[C@H](Cc2ccccc2)[C@@H](O)C(=O)O)nn1Cc1ccc(-c2ccccc2S(=O)(=O)NC(C)=O)cc1F` [Example 6-11, (2R,3R)-3-{[1-(2′-Acetylsulfamoyl-3-fluorobiphenyl-4-ylmethyl)-5-butyl-1H-pyrazole-3-carbonyl]amino}-2-hydroxy-4-phenylbutyric acid], the IC50 on NEP enzyme is not above 1000 nM. In addition, the Ki on human AT1 receptor was not above 10 nM.

With `CCCc1cc(C(=O)N[C@@H](CS)Cc2ccccc2)nn1Cc1ccc(-c2ccccc2S(=O)(=O)NC(C)=O)cc1` [Example 6-5, 1-(2′-Acetylsulfamoylbiphenyl-4-ylmethyl)-5-propyl-1H-pyrazole-3-carboxylic acid ((R)-1-benzyl-2-mercaptoethyl)amide], the IC50 at NEP enzyme was not above 100 nM. Also, on human AT1 receptor, the Ki is not above 10 nM.

For the compound `CCCc1cc(C(=O)N[C@H](Cc2ccccc2)[C@H](O)C(=O)O)nn1Cc1ccc(-c2ccccc2-c2nnn[nH]2)nc1` [Example 14-9, (2S,3R)-2-Hydroxy-4-phenyl-3-[(5-propyl-1-{6-[2-(1H-tetrazol-5-yl)phenyl]pyridin-3-ylmethyl}-1H-pyrazole-3-carbonyl)amino]butyric acid], the IC50 on NEP enzyme is not above 100 nM. Further, the Ki on human AT1 receptor was not above 10 nM.

As for `CCCc1cc(C(=O)N[C@H](Cc2ccccc2)[C@@H](O)C(=O)O)nn1Cc1ccc(-c2ccccc2S(=O)(=O)NC(=O)COC)cc1` [Example 7-8, (2R,3R)-2-Hydroxy-3-({1-[2′-(2-methoxyacetylsulfamoyl)biphenyl-4-ylmethyl]-5-propyl-1H-pyrazole-3-carbonyl}amino)-4-phenylbutyric acid], the IC50 on NEP enzyme was not above 1000 nM. Moreover, the Ki on human AT1 receptor was not above 10 nM.

As for `CCOc1cc(C(=O)N[C@H](Cc2ccccc2)[C@@H](O)C(=O)O)nn1Cc1ccc(-c2ccccc2-n2nn[nH]c2=O)cc1` [Example 16-7, (2R,3R)-3-({5-Ethoxy-1-[2′-(5-oxo-4,5-dihydrotetrazol-1-yl)-biphenyl-4-ylmethyl]-1H-pyrazole-3-carbonyl}amino)-2-hydroxy-4-phenylbutyric acid], the IC50 at NEP enzyme is not above 100 nM. At human AT1 receptor, the Ki is not above 10 nM.

Consider `CCCc1cc(C(=O)N[C@@H](CC(=O)O)Cc2ccccc2)nn1Cc1ccc(-c2ccccc2-n2nn[nH]c2=O)cc1` [Example 16-4, (R)-3-({1-[2′-(5-Oxo-4,5-dihydrotetrazol-1-yl)biphenyl-4-ylmethyl]-5-propyl-1H-pyrazole-3-carbonyl}amino)-4-phenylbutyric acid], for which, at NEP enzyme, the IC50 was not above 1000 nM. Moreover, the Ki at human AT1 receptor is not above 10 nM.

Consider `CCCc1cc(C(=O)N[C@@H](CC(=O)NO)Cc2ccccc2)nn1Cc1c(F)cc(-c2ccccc2S(=O)(=O)NC(C)=O)cc1F` [Example 6-20, 1-(2′-Acetylsulfamoyl-3,5-difluorobiphenyl-4-ylmethyl)-5-propyl-1H-pyrazole-3-carboxylic acid ((R)-1-hydroxycarbamoylmethyl-2-phenylethyl)amide], for which, at NEP enzyme, the IC50 was not above 100 nM. In addition, the Ki on human AT1 receptor was not above 10 nM.

These data come from patent publication US8350027B2, “Dual-acting pyrazole antihypertensive agents” (Theravance, Inc., priority 2009, dated 2013).
